Here are results for 8 molecules from ChEMBL document CHEMBL3817731, “Synthesis and investigation of novel benzimidazole derivatives as antifungal agents” (Bioorg Med Chem, 2016).

Format in all cases: functional
In test [1] the test system is Candida albicans. As to the kind of experiment: Antifungal activity against Candida albicans ATCC 64124 after 48 hrs by CLSI M27-A3 method. The following applies: ATCC 64124, 48 h.
For test [2], the system named is Candida albicans. Put plainly: Antifungal activity against Candida albicans ATCC MYA-2876 after 48 hrs by CLSI M27-A3 method. Conditions: ATCC MYA-2876, 48 h.
Test [3] relates to Candida albicans. Put plainly: Antifungal activity against Candida albicans ATCC MYA-90819 after 48 hrs by CLSI M27-A3 method. Conditions: ATCC MYA-90819, 48 h.
Test [4] has as its system Candida albicans. As to the kind of experiment: Antifungal activity against Candida albicans ATCC MYA-2310 after 48 hrs by CLSI M27-A3 method. Conditions: ATCC MYA-2310, 48 h.
Test [5] relates to Candida albicans. Put plainly: Antifungal activity against Candida albicans ATCC MYA-1237 after 48 hrs by CLSI M27-A3 method. The following applies: ATCC MYA-1237, 48 h.
The subject of test [6] is Candida albicans. As to the kind of experiment: Antifungal activity against Candida albicans ATCC 10231 after 48 hrs by CLSI M27-A3 method. The following applies: ATCC 10231, 48 h.
The subject of test [7] is Candida albicans. Put plainly: Antifungal activity against Candida albicans ATCC MYA-1003 after 48 hrs by CLSI M27-A3 method. The following applies: ATCC MYA-1003, 48 h.
Test [8] has as its system Nakaseomyces glabratus. Put plainly: Antifungal activity against Candida glabrata ATCC 2001 after 48 hrs by CLSI M27-A3 method. Conditions: CBS 138, 48 h.
Test [9] deals with Pichia kudriavzevii. As to the kind of experiment: Antifungal activity against Candida krusei ATCC 6258 after 48 hrs by CLSI M27-A3 method. The following applies: ATCC 6258, 48 h.
For test [10], the system named is Candida parapsilosis. As to the kind of experiment: Antifungal activity against Candida parapsilosis ATCC 22019 after 48 hrs by CLSI M27-A3 method. Conditions: Lodderomyces parapsilosis, ATCC 22019, 48 h.
The subject of test [11] is Aspergillus flavus. Put plainly: Antifungal activity against Aspergillus flavus ATCC MYA-3631 after 48 hrs by CLSI M38-A2 method. The following applies: ATCC MYA-3631, 48 h.
The subject of test [12] is Aspergillus nidulans. As to the kind of experiment: Antifungal activity against Aspergillus nidulans ATCC 38163 after 48 hrs by CLSI M38-A2 method. Conditions: ATCC 38163, 48 h.
Test [13] deals with Aspergillus terreus. Put plainly: Antifungal activity against Aspergillus terreus ATCC MYA3633 after 48 hrs by CLSI M38-A2 method. Conditions: ATCC MYA3633, 48 h.

The structures appear in SMILES notation. Values after ≈ are worked out from the molar mass of the structure shown.

With `CCOc1ccc(-c2nc3ccc(-c4nc5ccc(N6CCN(CC)CC6)cc5[nH]4)cc3[nH]2)cc1`, the MIC in test [1], in test [2], in test [3], in [4], in test [5] and in [6] was 15.6 µg/mL (≈ 33.4 µM) each time. Moreover, the minimal inhibitory concentration (MIC) – broadly, the lowest concentration found to suppress growth – in [7] was over 31.2 µg/mL; in test [8], 31.2 µg/mL (≈ 66.9 µM); in test [9] it was 15.6 µg/mL (≈ 33.4 µM); in test [10], 3.9 µg/mL (≈ 8.36 µM); in test [11], over 31.2 µg/mL; in test [12] it was 15.6 µg/mL (≈ 33.4 µM). In test [13], the lowest concentration to inhibit growth (MIC) was 15.6 µg/mL (≈ 33.4 µM).

For `C#CCOc1ccc(-c2nc3ccc(-c4nc5ccc(N6CCN(CCC)CC6)cc5[nH]4)cc3[nH]2)cc1`, the MIC in [1], in [2], in test [3], in [4], in test [5] and in test [6] was over 31.2 µg/mL each time. The minimum inhibitory concentration (MIC) in [7] is over 31.2 µg/mL; in [8], over 31.2 µg/mL; in test [9] it was 15.6 µg/mL (≈ 31.8 µM); in test [10], over 31.2 µg/mL; in test [11], over 31.2 µg/mL; in [12], over 31.2 µg/mL. Besides, in test [13], the minimal inhibitory concentration (MIC) was over 31.2 µg/mL.

With `CCCCCCCCCCCCOc1ccc(-c2nc3ccc(-c4nc5ccc(N6CCN(C)CC6)cc5[nH]4)cc3[nH]2)cc1`, the minimum inhibitory concentration (MIC) in [1], in [2], in test [3], in [4], in [5] and in test [6] was over 31.2 µg/mL each time. Also, the minimal inhibitory concentration (MIC) in [7], in test [8], in [9], in test [10], in [11] and in test [12] was over 31.2 µg/mL each time. In test [13], this molecule returned a minimum inhibitory concentration (MIC) of over 31.2 µg/mL.

As to `CCN1CCN(c2ccc3nc(-c4ccc5nc(-c6ccc(OC)cc6)[nH]c5c4)[nH]c3c2)CC1`, the minimum inhibitory concentration (MIC) in test [1], in test [2], in test [3], in test [4], in test [5] and in test [6] was over 31.2 µg/mL throughout. In addition, the MIC in test [7] is over 31.2 µg/mL; in [8], 7.8 µg/mL (≈ 17.2 µM); in test [9], 31.2 µg/mL (≈ 68.9 µM); in test [10] it was 7.8 µg/mL (≈ 17.2 µM); in test [11], over 31.2 µg/mL; in test [12], over 31.2 µg/mL. Further, the MIC in [13] is over 31.2 µg/mL.

For the molecule `CCC(C)n1ncn(-c2ccc(N3CCN(c4ccc(OCC5COC(Cn6cncn6)(c6ccc(Cl)cc6Cl)O5)cc4)CC3)cc2)c1=O` (stereo not drawn) [ITRACONAZOLE], the MIC was over 62.5 µg/mL in test [1]; 7.8 µg/mL (≈ 11.1 µM) in [2]; 31.2 µg/mL (≈ 44.2 µM) in test [3]; 31.2 µg/mL (≈ 44.2 µM) in test [4]; 31.2 µg/mL (≈ 44.2 µM) in [5]; 0.5 µg/mL (≈ 0.709 µM) in [6]. Besides, the MIC in test [7] stood at 31.2 µg/mL (≈ 44.2 µM); in test [9], 0.48 µg/mL (≈ 0.68 µM); in test [10] it was 0.12 µg/mL (≈ 0.17 µM); in [11] it was 0.48 µg/mL (≈ 0.68 µM); in [12], 0.195 µg/mL (≈ 0.276 µM); in test [13] it was 0.975 µg/mL (≈ 1.38 µM).

Consider `C#CCOc1ccc(-c2nc3ccc(-c4nc5ccc(-c6nc7ccc(N8CCN(C)CC8)cc7[nH]6)cc5[nH]4)cc3[nH]2)cc1`, for which the MIC in test [1], in test [2], in test [3], in test [4], in test [5] and in test [6] was over 31.2 µg/mL in each case. Besides, the MIC in test [7] is over 31.2 µg/mL; in test [8], 31.2 µg/mL (≈ 53.9 µM); in test [9], over 31.2 µg/mL; in [10], over 31.2 µg/mL; in test [11], over 31.2 µg/mL; in test [12] it was 31.2 µg/mL (≈ 53.9 µM). In test [13], this molecule came in with an MIC of 31.2 µg/mL (≈ 53.9 µM).

Take `CN1CCN(c2ccc3nc(-c4ccc5nc(-c6ccc(OCCO)cc6)[nH]c5c4)[nH]c3c2)CC1`: the minimum inhibitory concentration (MIC) in [1] was over 31.2 µg/mL; in test [2] it was 31.2 µg/mL (≈ 66.6 µM); in test [3], over 31.2 µg/mL; in test [4], 31.2 µg/mL (≈ 66.6 µM); in test [5], over 31.2 µg/mL; in test [6] it was over 31.2 µg/mL. For the same molecule, the MIC in test [7] is 31.2 µg/mL (≈ 66.6 µM); in test [8], 31.2 µg/mL (≈ 66.6 µM); in test [9], 7.8 µg/mL (≈ 16.6 µM); in test [10] it was 15.6 µg/mL (≈ 33.3 µM); in test [11], 31.2 µg/mL (≈ 66.6 µM); in test [12] it was 15.6 µg/mL (≈ 33.3 µM). This molecule gave a minimum inhibitory concentration (MIC) in test [13] of 15.6 µg/mL (≈ 33.3 µM).

As to `CCCN1CCN(c2ccc3nc(-c4ccc5nc(-c6ccc(OC)cc6)[nH]c5c4)[nH]c3c2)CC1`, the minimal inhibitory concentration (MIC) in [1], in test [2], in [3], in test [4], in test [5] and in test [6] was over 31.2 µg/mL each time. Also, the MIC is over 31.2 µg/mL in test [7]; over 31.2 µg/mL in test [8]; 7.8 µg/mL (≈ 16.7 µM) in test [9]; 31.2 µg/mL (≈ 66.9 µM) in [10]; over 31.2 µg/mL in [11]; over 31.2 µg/mL in [12]. The MIC in test [13] is over 31.2 µg/mL.
